Measured values as given in patent US20090030055A1, “PKC activation as a means for enhancing s[sequence] secretion and improving cognition using bryostatin type compounds” (priority 2002, published 2009).
Entries after “also recorded” stand apart in the source; their conditions may differ. Where two headings read alike, the source gives them in different places.

How the values were obtained:
protein kinase C = settings: (−)-enantiomer; cited from earlier work
PKC [1] = settings: cited from earlier work
[2] = test system: squamous cell carcinoma and melanoma; settings: used topically; cited from earlier work
PKC [3] = settings: competes with [3H]phorbol dibutyrate; read-out: Ki for binding; cited from earlier work
PKCε = target: T1, PKCε (Homo sapiens, UniProt Q02156); settings: cited from earlier work
T1 sequence (Q02156 1-737): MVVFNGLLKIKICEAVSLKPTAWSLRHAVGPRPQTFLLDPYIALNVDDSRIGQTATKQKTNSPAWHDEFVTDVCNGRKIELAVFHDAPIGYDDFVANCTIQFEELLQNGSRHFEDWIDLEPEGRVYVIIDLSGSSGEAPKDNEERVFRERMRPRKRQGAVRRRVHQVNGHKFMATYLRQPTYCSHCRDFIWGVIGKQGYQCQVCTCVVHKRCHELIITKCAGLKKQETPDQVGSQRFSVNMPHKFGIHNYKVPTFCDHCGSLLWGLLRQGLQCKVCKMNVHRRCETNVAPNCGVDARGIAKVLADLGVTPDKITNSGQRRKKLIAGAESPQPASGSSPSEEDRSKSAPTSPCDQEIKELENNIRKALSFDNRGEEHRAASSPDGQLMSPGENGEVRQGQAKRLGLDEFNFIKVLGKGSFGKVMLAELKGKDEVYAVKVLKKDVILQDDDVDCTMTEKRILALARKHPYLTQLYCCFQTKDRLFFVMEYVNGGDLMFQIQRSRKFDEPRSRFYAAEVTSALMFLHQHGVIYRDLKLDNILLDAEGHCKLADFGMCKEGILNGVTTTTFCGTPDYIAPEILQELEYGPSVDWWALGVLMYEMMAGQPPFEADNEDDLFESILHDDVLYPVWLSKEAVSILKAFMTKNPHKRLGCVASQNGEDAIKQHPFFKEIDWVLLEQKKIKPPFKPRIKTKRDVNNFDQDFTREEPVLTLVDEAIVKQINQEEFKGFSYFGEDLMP

NCI 60 cell line screen = settings: cited from earlier work
[4] = test system: sAPPα secretion, AD cell line AG06848; assay: sAPPα secretion immunoblot, AD fibroblasts; assay type: cell-based, human
Method: Cultured skin fibroblasts were obtained from the Coriell Cell Repositories and grown using the general guidelines established for their culture with slight modifications (Cristofalo & Carpentier, 1988; Hirashima et al., 1996). The culture medium in which cells were grown was Dulbecco's modified Eagle's medium (GIBCO) supplemented with 10% fetal calf serum (Biofluids, Inc.). Fibroblasts from control cell lines (AC), cases AG07141 and AG06241, and a familial AD (FAD) case (AG06848) were utilized.
Cells grown to confluence in 6 cm Petri dishes for 5-7 days. On the day of the experiment, medium was replaced with DMEM without serum and left undisturbed for 2 h. Upon completion of the 2 hour serum deprivation; treatment was achieved by direct application to the medium of Bryo, BL and DMSO at the appropriate concentrations. (0.1 and 0.01 nM for bryostatin; 0.1 nM, 0.1 μM, and 1 μM BL). DMSO was less than 1% in all cases. In most cases, medium was collected and processed after 3 hours of treatment for sAPP secretion. Other time points were also used to establish a time course of secretion.
sAPP—Determinations/Measurements of sAPPα
The concentration of secreted APP was measured using conventional immunoblotting techniques, with minor modifications the protocol. Precipitated protein extracts from each dish/treatment were loaded to freshly prepared 10% acrylamide Tris-HCl minigels and separated by SDPAGE. The volume of sample loaded was corrected for total cell protein per dish. Proteins were then electrophoretically transferred to PVDF membranes. Membranes were saturated with 5% non-fat dry milk to block non-specific binding. Blocked membranes were incubated overnight at 4° C. with the commercially available antibody 6E10 (1:500), which recognizes sAPP-alpha in the conditioned medium (SENETEK). After washing, the membranes were incubated at room temperature with horseradish peroxidase conjugated anti-mouse IgG secondary antibody (Jackson's Laboratories). The signal was then detected using enhanced chemiluminescence followed by exposure of Hyperfilm ECL (Amersham). The band intensities were quantified by densitometry using a BioRad GS-800 calibrated scanning densitometer and Multianalyst software (BioRad).

[5] = test system: Transgenic mice carrying the V7171 mutation; assay: Transgenic mice carrying the V7171 APP mutation, APP species in brain and health; assay type: in vivo; settings: for deaths: 5-6 months old animals
Method: Transgenic mice carrying the V7171 mutation were treated with BL (1 mg/kg, i.p.; daily) from […] of age (after weaning) for 17 weeks (n=4). The control group (n=4) received vehicle alone (Tween 20 1%, DMSO 25%, 74% PBS). Another experimental group consisted of 5-6 months old animals treated for 7 weeks. Subgroups of these animals were treated with BL 1 mg/kg, daily (n=5); BL 10 mg/kg, daily (n=3; due to two deaths); BL 10 mg/kg, weekly (n=4; one death), LQ12 10 mg/kg, daily (n=5); and LQ12 10 mg/kg, weekly (n=5). Five additional animals received vehicle alone for the same period. After completion of the treatment, animals were euthanized according to K.U.L. (Belgium) guidelines. Brains were removed and prepared for biochemical analyses of APP species.
Immunoblot analysis. The biochemical analysis of intermediates of APP metabolism has been described elsewhere by Dewachter et al. (Aging increased amyloid peptide and caused amyloid plaques in brain of old APP/V7171 transgenic mice by a different mechanism than mutant presenilinl. J. Neurosci. 2000; 20:6452-8.). Briefly, brains were homogenized in 6.5 vol. of ice-cold buffer containing 20 mm Tris-HCl, pH 8.5, and a mixture of proteinase inhibitors (Roche, Darmstadt, Germany). After centrifugation at 135,000×g at 4° C. for 1 hr, the supernatant was centrifuged again for 2 hr at 200,000×g before analysis of soluble amyloid peptides by specified ELISA. The pellets from the first centrifugation were resuspended in TBS containing 2% Triton X-100, 2% Nonidet P40 and proteinase inhibitors and centrifuged at 100.000×g at 4° C. for 1 hr. This protein fraction was used for analysis of membrane-bound APP. Western blotting of membrane bound APP was performed on this protein fraction containing membrane-bound proteins, with monoclonal antibody 8E5. Total secreted APP and a-secretase cleaved secreted APP-a were detected by Western blotting analysis on the supernatant of the first centrifugation, with monoclonal antibody 8E5 and monoclonal antibody JRF14, respectively. Proteins were denatured and reduced in sample buffer containing a final concentration of 2% SDS, 1% 2-ME and separated on 8% TRIS Glycine gels (Novex, San Diego, Calif.). After incubation with appropriate secondary antibodies, all Western blots were developed with the ECL detection system and photographically recorded. Application of a series of diluted sample allowed quantitation. Densitometric scanning of films and normalization were performed using a flatbed optical density scanner and dedicated software for analysis and measurement (Image Master; Pharmacia, Uppsala, Sweden).
ELISA of amyloid peptides. Protein extracts were applied on reversed-phase columns (C18-Sep-pack cartridges; Waters Corporation, Milford, Mass.) and washed with increasing concentrations of acetonitrile (5, 25, and 50%) containing 0.1% trifluoroacetic acid. The last fraction contained the amyloid peptides and was dried in vacuo overnight and dissolved for measurements in ELISA. Sandwich ELISA for human […] peptides was performed using the capture antiserum JRF/cAβ40/10 and 21F12, respectively, and they were developed with monoclonal antibodies JRFcAβ/tot/14 hrpo and 3D6, respectively (Vanderstichele H, Van Kerschaver E, Hese C, Davidsson P, Buyse M A, Andreansen N, Minthon L, Wallin A, Blennow K, Vanmechelen E. Standardization of measurements of beta-amyloid (1-42) in cerebrospinal fluid and plasma. Amyloid 2000; 7: 245-258).
Standard general health assessment and open field were conducted in all animals prior to the biochemical assessments. In addition, a semi-quantitative ad hoc score was devised to measure abdominal contractions that followed the injections (+=weak, <2 min; […]).

[6] = test system: sAPP secretion, AD fibroblasts; settings: benzolactam-treated cells; cited from earlier work
[7] = test system: sAPP secretion, control fibroblasts; settings: cited from earlier work
[8] = A-ring bryologs, read-out: affinity for PKC
[9] = 1 mg/kg i.p. daily from 3 weeks of age for 17 weeks
[10] = 1 mg/kg i.p. daily from 3 weeks of age for 17 weeks, vs vehicle
[11] = 6 months old animals, 7 weeks, 10 mg/kg daily
[12] = 6 months old animals, 7 weeks, 10 mg/kg weekly

CCCCCCCCc1ccc2c3c(c[nH]c13)C[C@@H](CO)NC(=O)[C@H](C(C)C)N2C [octylindolactam V, Octylindolactam V]
EC50 (protein kinase C): 29 nM

CCCCCCCC(=O)OC1C(=CC(=O)OC)CC2CC(CO)OC(=O)CC(O)CCOC(C(C)(C)C)CC3CCOC(C=CC(C)(C)C1(O)O2)O3 (stereo not shown) [bryolog 3]
Ki (PKC [1]; [8]): 6.5 nM

C/C=C(/C)C(=O)O[C@H]1C(C)=C[C@]23C(=O)[C@@H](C=C(CO)[C@@H](O)[C@]12O)[C@H]1[C@@H](C[C@H]3C)C1(C)C [Ingenol-3-angelate]
antitumor activity [2]: possesses antitumor activity

CC1=C[C@]23C(=O)[C@@H](C=C(COC(=O)c4ccccc4)[C@@H](O)[C@]2(O)[C@H]1OC(=O)c1ccccc1)[C@H]1[C@@H](C[C@H]3C)C1(C)C [Ingenol 3,20-dibenzoate]
Ki (PKC [3]): 240 nM

CCCCCC1CC1CC1CC1CCCCCCCC(=O)O (stereo not shown) [DCP-LA, 2-[(2-pentylcyclopropyl)methyl]cyclopropaneoctanoic acid]
concentration of maximal effect on PKCε (PKCε): 100 nM

CC1=CC[C@H](C)C(C)(C)[C@@H]1/C=C/C(C)=C/CC[C@@]1(CO)[C@H](CCCO)/C(=C(/C)C=O)CC[C@]1(C)O [Iripallidal]
G150 (concentration required to inhibit growth by 50%) (NCI 60 cell line screen): micromolar to nanomolar range

CCCCCCCC(=O)O[C@H]1/C(=C/C(=O)OC)C[C@H]2C[C@H](CO)OC(=O)C[C@H](O)CCOCC[C@@H]3CCO[C@H](/C=C/C(C)(C)[C@]1(O)O2)O3 [Analog 2]
affinity for PKC, in words (PKC [1]): high affinity | Ki (PKC [1]; read-out: PKC Affin): 6.5 nM

CCCCCCCCC#Cc1ccc2c(c1)C[C@@H](CO)NC(=O)[C@H](C(C)C)N2C [BL, benzolactam]
secretion of sAPPα ([4]; AD cell line AG06848, 0.1 nM, three hours of treatment, relative to DMSO): no real impact on secretion | APP membrane-bound [5, 9]: no differences | amount of Aβ42 [5, 9]: no differences | total secreted sAPP (sAPPα+sAPPβ) [5, 9]: no differences | Aβ40 in brain [5, 10]: concomitant and proportional reduction | sAPPα in brain [5, 10]: significant increase | general health ([5]; 1 mg/kg i.p. daily, 17 weeks): no differences in general health | intensity of abdominal contractions after injection ([5]; 1 mg/kg i.p. daily, 17 weeks, vs vehicle group): somewhat elevated | deaths ([5]; 7 weeks, 10 mg/kg daily): two deaths | deaths ([5]; 7 weeks, 10 mg/kg weekly): one death | sAPPα in brain ([5]; 6 months old animals, 7 weeks, 1 mg/kg daily): no effect | Aβ40 in brain [5, 11]: increase | sAPPα in brain [5, 11]: slight increase | Aβ40 in brain [5, 12]: slight decrease | sAPPα in brain [5, 12]: slight increase | sAPP secretion in AD cells compared to control fibroblasts [6]: slightly higher | concentration giving significant increases of sAPP secretion [7]: 10 µM

CCCCCCCC(=O)OC1C(=CC(=O)OC)CC2CC(CO)OC(=O)CC(O)CCOC(c3ccccc3)CC3CCOC(C=CC(C)(C)C1(O)O2)O3 (stereo not shown) [bryolog 4]
Ki (PKC [1]; [8]): 2.3 nM

CCCCCCCC(=O)OC1C(=CC(=O)OC)CC2CC(CO)OC(=O)CC(O)CCOC(CCCc3ccc(Br)cc3)CC3CCOC(C=CC(C)(C)C1(O)O2)O3 (stereo not shown) [bryolog 5]
Ki (PKC [1]; [8]): 1.9 nM

CN[C@@H]1C[C@H]2O[C@@](C)([C@@H]1OC)n1c3ccccc3c3c4c(c5c6ccccc6n2c5c31)C(=O)NC4 [staurosporin]
effect of pre-treatment on bryostatin-induced sAPPα secretion ([4]; 100 nM pre-treatment, bryostatin 0.1 nM): abolished the effects of 0.1 nM bryostatin; also recorded: completely abolished the effect
